Patent US8153104B2, “Pharmaceutical formulations for dry powder inhalers comprising a low-dosage strength active ingredient” (Chiesi Farmaceutici S.p.A., priority 2005, dated 2012)
Where a name gives a salt, the structure may show the parent alone.

Assay: Particle size of microparticles by laser diffraction analysis
Type: physicochemical
Conditions: starting material of Example 2
Procedure: The particle size of the obtained microparticles was determined by laser diffraction analysis. The parameters taken into consideration were: i) the VD in micron of 10%, 50%, and 90% of the particles expressed as d(v, 0.1), d(v, 0.5) and d(v, 0.9), respectively, which correspond to the mass diameter assuming a size independent density for the particles. ii) the polydispersity of the powder, i.e. the width of the particle size distribution which is expressed by the span (span=[d(v, 0.9)−d(v, 0.1)]/d (v, 0.5)—according to Chew N Y et al J Pharm Pharmaceut Sci 2002, 5, 162-168).
The agglomerates were isolated by sieving and their particle size distribution determined by laser diffraction analysis.
The microparticles were characterised in terms of particle size (laser diffraction analysis) and uniformity of distribution of the active ingredient.

COc1ccc(C[C@@H](C)NC[C@H](O)c2ccc(O)c3[nH]c(=O)ccc23)cc1 [CHF 4226 hydrochloride, 8-hydroxy-5-[(1R)-1-hydroxy-2-[[(1R)-2-(4-methoxyphenyl)-1-methylethyl]amino]ethyl-2(1H)-quinolinone hydrochloride]
MMD of micronised active ingredient: 1.8 micron
